Data set [1] in a line: specific surface area by the BET method. It counts as physicochemical. As for the experimental part:
For each sample, the surface area measured by the BET method and the fraction of phosphate remaining after 10 min of reaction have been tabulated. […] The rate constant k1 is defined by the following equation: d[PO4]/dt=−k1[PO4]
An aqueous HCl solution having a volume of 334.75 ml and containing LaCl3 (lanthanum chloride) at a concentration of 29.2 wt % as La2O3 was added to a 4 liter beaker and heated to 80° C. with stirring. The initial pH of the LaCl3 solution was 2.2. Two hundred and sixty five ml of an aqueous solution containing 63.59 g of sodium carbonate (Na2CO3) was metered into the heated beaker using a small pump at a steady flow rate for 2 hours. Using a Buchner filtering apparatus fitted with filter paper the filtrate was separated from the white powder product. The filter cake was mixed four times, each with 2 liters of distilled water and filtered to wash away the NaCl formed during the reaction. The washed filter cake was placed into a convection oven set at 105° C. for 2 hours or until a stable weight was observed. […] The surface area of the product was determined by the BET method. The test was repeated 3 times and slightly different surface areas and different reaction rates were obtained as shown in Table 1.

A short description of data set [2]: reactivity with respect to phosphate: phosphate removal from pH 3 Na2HPO4/HCl stock solution. To be noted: for Initial 1st order rate constant k1: calculated from the experimental points for the first minute of the reaction, pH 3; for Fraction of PO4 remaining after 10 min: pH 3 stock solution, La 3 times the stoichiometric amount. Format: binding. Here is the method: A desirable lanthanum carbonate hydroxide is LaCO3OH. […] To determine the reactivity of the lanthanum carbonate hydroxide compound with respect to phosphate, the following procedure was used. A stock solution containing 13.75 g/l of anhydrous Na2HPO4 and 8.5 g/l of HCl is prepared. The stock solution is adjusted to pH 3 by the addition of concentrated HCl. 100 ml of the stock solution is placed in a beaker with a stirring bar. A sample of lanthanum carbonate hydroxide powder is added to the solution. The amount of lanthanum carbonate hydroxide powder is such that the amount of La in suspension is 3 times the stoichiometric amount needed to react completely with the phosphate. Samples of the suspension are taken at intervals, through a filter that separated all solids from the liquid. The liquid sample is analyzed for phosphorous.
(§1) To determine the reactivity of the lanthanum compound with respect to phosphate, the following test was conducted. A stock solution containing 13.75 g/l of anhydrous Na2HPO4 and 8.5 g/l of HCl was prepared. The stock solution was adjusted to pH 3 by the addition of concentrated HCl. An amount of 100 ml of the stock solution was placed in a beaker with a stirring bar. The lanthanum oxychloride from above was added to the solution to form a suspension. The amount of lanthanum oxychloride was such that the amount of La in suspension was 3 times the stoichiometric amount needed to react completely with the phosphate. Samples of the suspension were taken at time intervals, through a filter that separated all solids from the liquid. The liquid sample was analyzed for phosphorous.
as §1, with “Lanthanum carbonate hydroxide powder made as described” for “The lanthanum oxychloride from”, “solution.” for “solution to form a suspension.”, “carbonate hydroxide powder” for “oxychloride”, “intervals” for “intervals,”
(§2) To determine the reactivity of this lanthanum compound with respect to phosphate, the following test was conducted. A stock solution containing 13.75 g/l of anhydrous Na2HPO4 and 8.5 g/l of HCl was prepared. The stock solution was adjusted to pH 3 by the addition of concentrated HCl. An amount of 100 ml of the stock solution was placed in a beaker with a stirring bar. Anhydrous lanthanum oxycarbonate made as described above, was added to the solution. The amount of anhydrous lanthanum oxycarbonate was such that the amount of La in suspension was 3 times the stoichiometric amount needed to react completely with the phosphate. Samples of the suspension were taken at intervals, through a filter that separated all solids from the liquid. The liquid sample was analyzed for phosphorous.
as §2, with “reactivity of the lanthanum compound” for “reactivity of this lanthanum compound”, “stirring bar. La2CO5 powder, made as” for “stirring bar. Anhydrous lanthanum oxycarbonate made as”, “amount of lanthanum oxycarbonate” for “amount of anhydrous lanthanum oxycarbonate”, “taken at intervals through a” for “taken at intervals, through a”

Data set [3] in a line: binding efficiency test, spiked water. To be noted: 0.50 g in 30.0 ml spike solution, approximately 1 mg/l of each element, 18 hrs, room temperature. Here is the method: Tests were run to determine the binding efficiency of eight different compounds for twenty-four different elements.
The main objective of the tests was to investigate the efficiency at which the compounds bind arsenic and selenium, in view of their use in removing those elements from drinking water. Twenty-one different anions were also included to explore further possibilities. The tests were performed as follows:
The compounds given in Table 6 were added to water and a spike and were vigorously shaken at room temperature for 18 hrs. The samples were filtered and the filtrate analyzed for a suite of elements including Sb, As, Be, Cd, Ca, Cr, Co, Cu, Fe, Pb, Mg, Mn, Mo, Ni, Se, Tl, Ti, V, Zn, Al, Ba, B, Ag, and P.
2. Add standard solutions of the elements given above to make solutions containing approximately 1 mg/l of each element.
1. Weigh 0.50 g of each compound into its own 50 ml centrifuge tube.
2. Add 30.0 ml of the spike solution to each.
3. Cap tightly and shake vigorously for 18 hrs.
4. Filter solution from each centrifuge tube through 0.2 µm syringe filter. Obtain about 6 ml of filtrate.
5. Dilute filtrates 5:10 with 2% HNO3. Final Matrix is 1% HNO3.

The mark [4] stands for this setting: after 10 min, pH 3, La 3 times the stoichiometric amount.

As for `O=C([O-])[O-].[La+3].[La+3].[O-2].[O-2]` [Sample 7, La2O2CO3], the BET surface area in data set [1] was determined as 16.5 m^2/g. In data set [2], the “Initial 1st order rate constant k1” value was 0.36 min⁻¹ and the “Fraction of PO4 remaining after 10 min” value is 0.327.

The compound `O=C([O-])[O-].[La+3].[La+3].[O-2].[O-2]` [Sample 6, La2CO5] came in with a BET surface area in data set [1] of 18.8 m^2/g. For the same compound, in data set [2], the “Initial 1st order rate constant k1” value was 0.391 min⁻¹ and the “Fraction of PO4 remaining after 10 min” value is 0.308.

With `O=C([O-])[O-].[La+3].[La+3].[O-2].[O-2]` [Sample 5, La2O2CO3], the BET surface area in data set [1] was 18 m^2/g. In data set [2], the “Initial 1st order rate constant k1” value was 0.483 min⁻¹ and the “Fraction of PO4 remaining after 10 min” value came to 0.278.

With `[La+3].[La+3].[O-2].[O-2].[O-2]` [La2O3], in data set [3], the “% Analyte Removed As” value is on record as 85%, the “% Analyte Removed Be” value came out at 97%, the “% Analyte Removed Ca” value stood at 21% and the “% Analyte Removed Cd” value is 95%. Moreover, in data set [3], the “% Analyte Removed Co” value amounted to 69%, the “% Analyte Removed Cr” value worked out at 100%, the “% Analyte Removed Cu” value was found to be 89% and the “% Analyte Removed Fe” value came out at 92%. Moreover, in data set [3], the “% Analyte Removed Mg” value is reported as 0%, the “% Analyte Removed Mn” value is recorded as 94%, the “% Analyte Removed Pb” value is reported as 92% and the “% Analyte Removed Sb” value was 89%.

`O=C([O-])[O-].[La+3].[La+3].[O-2].[O-2]` [Sample 4, La2CO5] showed a BET surface area in data set [1] of 25.6 m^2/g. Also, in data set [2], the “Initial 1st order rate constant k1” value was 0.545 min⁻¹ and the “Fraction of PO4 remaining after 10 min” value is 0.275.

For `O.O.O.O.O=C([O-])[O-].O=C([O-])[O-].O=C([O-])[O-].[La+3].[La+3]` [La2(CO3)3•4H2O, reference compound], the “rate of removal of phosphate compared with LaOCl of Example 1” value in data set [2] (FIG. 14, pH 3) is on record as “faster at the beginning but slower after about 3 minutes”. Besides, in data set [2] (setting [4]), the “capacity of phosphate removal (PO4 removed/g of La compound)” value worked out at 45 mg PO4/g and the “phosphate in solution removed” value is 38%. In addition, in data set [3], the “% Analyte Removed As” value turned out to be 25%, the “% Analyte Removed Be” value turned out to be 41%, the “% Analyte Removed Ca” value is reported as 28% and the “% Analyte Removed Cd” value worked out at 37%. Besides, in data set [3], the “% Analyte Removed Co” value is on record as 20%, the “% Analyte Removed Cr” value amounted to 94%, the “% Analyte Removed Cu” value was found to be 0% and the “% Analyte Removed Fe” value is 56%. In addition, in data set [3], the “% Analyte Removed Mg” value amounted to 0%, the “% Analyte Removed Mn” value stood at 20%, the “% Analyte Removed Pb” value was found to be 90% and the “% Analyte Removed Sb” value was 84%. Further, in data set [3] (listed as Commercial lanthanum carbonate), the “% Analyte Removed As” value is “less effective”.

Compound `O=C([O-])[O-].[La+3].[OH-]` [Sample 3, LaCO3OH] registered a BET surface area in data set [1] of 38.8 m^2/g. Also, in data set [2], the “Initial 1st order rate constant k1” value is 0.837 min⁻¹ and the “Fraction of PO4 remaining after 10 min” value is 0.171.

As to `O=C([O-])[O-].O=C([O-])[O-].[Ti+4]` [Ti(CO3)2, Ti carbonate], in data set [3], the “% Analyte Removed As” value is 93%, the “% Analyte Removed Be” value came out at 100%, the “% Analyte Removed Ca” value is 99% and the “% Analyte Removed Cd” value was determined as 100%. In addition, in data set [3], the “% Analyte Removed Co” value worked out at 99%, the “% Analyte Removed Cr” value came out at 99%, the “% Analyte Removed Cu” value was determined as 98% and the “% Analyte Removed Fe” value stood at 100%. In data set [3], the “% Analyte Removed Mg” value was determined as 79%, the “% Analyte Removed Mn” value was found to be 100%, the “% Analyte Removed Pb” value is on record as 98% and the “% Analyte Removed Sb” value is recorded as 96%. Moreover, in data set [3] (listed as compound 5), the “% Analyte Removed As” value is reported as “most efficient”.

In the case of `O=C([O-])[O-].[La+3].[La+3].[O-2].[O-2]` [Sample 8, La2CO5], in data set [1], the BET surface area is 11.9 m^2/g. In data set [2], the “Initial 1st order rate constant k1” value was 0.434 min⁻¹ and the “Fraction of PO4 remaining after 10 min” value stood at 0.483.

In data set [1], `O=C([O-])[O-].[La+3].[OH-]` [Sample 1, LaCO3OH] yielded a BET surface area of 41.3 m^2/g. Further, in data set [2], the “Initial 1st order rate constant k1” value is 0.949 min⁻¹ and the “Fraction of PO4 remaining after 10 min” value is reported as 0.130.

With `[O]=[La][Cl]` [LaOCl, lanthanum oxychloride], the “relationship between the amount of phosphate bound or absorbed and time” value in data set [2] (compared with commercial hydrated lanthanum carbonates) was “closer to linear”. In data set [3], the “% Analyte Removed As” value was 76%, the “% Analyte Removed Be” value was 89%, the “% Analyte Removed Ca” value is on record as 0% and the “% Analyte Removed Cd” value was 46%. In addition, in data set [3], the “% Analyte Removed Co” value was 28%, the “% Analyte Removed Cr” value turned out to be 100%, the “% Analyte Removed Cu” value came to 88% and the “% Analyte Removed Fe” value turned out to be 100%. In data set [3], the “% Analyte Removed Mg” value is 0%, the “% Analyte Removed Mn” value came out at 28%, the “% Analyte Removed Pb” value stood at 99% and the “% Analyte Removed Sb” value amounted to 86%.

Consider `[O]=[Ti]=[O]` [TiO2], for which, in data set [3], the “% Analyte Removed As” value is recorded as 93%, the “% Analyte Removed Be” value amounted to 8%, the “% Analyte Removed Ca” value was 0% and the “% Analyte Removed Cd” value came to 4%. Also, in data set [3], the “% Analyte Removed Co” value turned out to be 0%, the “% Analyte Removed Cr” value is 6%, the “% Analyte Removed Cu” value is on record as 11% and the “% Analyte Removed Fe” value is 49%. Moreover, in data set [3], the “% Analyte Removed Mg” value was 0%, the “% Analyte Removed Mn” value is 1%, the “% Analyte Removed Pb” value is given as 97% and the “% Analyte Removed Sb” value is 96%. In data set [3] (listed as compound 6), the “% Analyte Removed As” value is given as “most efficient”.

(Values after patent publication US9511091B2, “Rare earth metal compounds, methods of making, and methods of using the same” (Spectrum Pharmaceuticals, Inc., priority 2002, dated 2016).)
